Paper PMC11859905, “Flavonoids as Potential Modulators of Pancreatic Lipase Catalytic Activity” (Pharmaceutics, 2025)
Where two headings read alike, the source gives them in different places.

Tests used:
[1] = molecular target: T1, porcine pancreatic lipase (Sus scrofa, UniProt P00591); experiment: In vitro assay using porcine pancreatic lipase (4-MUO hydrolysis, fluorometric);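 note: product 4-methylumbeliferone formation tracked fluorometrically, catalytic rate from RFU slope over the 10–30 min window, compounds checked beforehand for own fluorescence, at least three independent experiments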
T1 sequence (P00591 1-450): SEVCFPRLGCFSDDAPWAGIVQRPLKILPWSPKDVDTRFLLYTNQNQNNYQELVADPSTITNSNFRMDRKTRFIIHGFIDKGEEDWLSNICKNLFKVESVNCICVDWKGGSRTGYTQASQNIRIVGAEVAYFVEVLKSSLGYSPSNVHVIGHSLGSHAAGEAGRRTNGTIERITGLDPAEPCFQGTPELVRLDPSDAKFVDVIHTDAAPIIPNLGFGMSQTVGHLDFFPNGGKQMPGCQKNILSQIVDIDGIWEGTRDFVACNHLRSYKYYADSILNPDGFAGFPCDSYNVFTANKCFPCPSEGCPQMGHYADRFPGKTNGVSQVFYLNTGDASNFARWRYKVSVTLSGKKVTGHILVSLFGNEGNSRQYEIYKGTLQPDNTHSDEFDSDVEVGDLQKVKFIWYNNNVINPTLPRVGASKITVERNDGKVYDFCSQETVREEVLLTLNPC

[2] = molecular target: T2, human pancreatic lipase (Homo sapiens, UniProt P16233); experiment: In vitro assay using human pancreatic lipase (4-MUO hydrolysis, fluorometric); format: biochemical; conditions: for IC50: human PL 2 U/mL, 4-MUO 0.05 mM, mean ± SEM;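 for all read-outs here: Read-out is the initial rate of fluorescent 4-MU release as HPL cleaves the 4-MUO substrate, a rate that scales with the amount of enzyme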
T2 construct: PL from the human pancreas (triacylglycerol acyl hydrolase, EC 3.1.1.3); from tissue; host or cells: human pancreas
T2 sequence (P16233 17-465): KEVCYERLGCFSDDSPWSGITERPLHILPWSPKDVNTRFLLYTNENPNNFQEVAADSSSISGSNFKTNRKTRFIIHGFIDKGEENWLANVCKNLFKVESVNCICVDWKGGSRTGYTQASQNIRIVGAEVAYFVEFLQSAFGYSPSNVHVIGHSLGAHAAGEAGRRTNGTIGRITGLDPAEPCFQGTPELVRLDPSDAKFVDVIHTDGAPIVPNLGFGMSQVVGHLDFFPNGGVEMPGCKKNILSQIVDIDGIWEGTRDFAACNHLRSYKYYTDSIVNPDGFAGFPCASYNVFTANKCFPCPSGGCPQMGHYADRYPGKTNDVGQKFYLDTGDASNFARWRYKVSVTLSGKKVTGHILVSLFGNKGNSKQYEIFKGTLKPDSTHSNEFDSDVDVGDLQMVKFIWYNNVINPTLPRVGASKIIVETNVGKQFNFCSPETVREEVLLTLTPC

[3] = molecular target: T2, human pancreatic lipase; experiment: Inhibition kinetics of human pancreatic lipase (nonlinear regression, Solver); format: biochemical
[4] = molecular target: T1, porcine pancreatic lipase; experiment: Inhibition kinetics of porcine pancreatic lipase (nonlinear regression, Solver); format: biochemical; parameters: compare it to the effects of the porcine pancreas (type II, EC 3.1.1.3); from tissue; host or cells: porcine pancreas (type II preparation); conditions: for Inhibition Model / Ki / Vmax: porcine pancreatic lipase; for Ki / Vmax: ± SEM; for Vmax: in µmol/min
[5] = molecular target: T1, porcine pancreatic lipase; parameters: compare it to the effects of the porcine pancreas (type II, EC 3.1.1.3); from tissue; host or cells: porcine pancreas (type II preparation); conditions: not calculated in this paper; cited from earlier work
[6] = competitive constant, read-out: Kic

Row | IC50 [1] [µM] | Ki ([3]; human pancreatic lipase, first Kic column of Table 4, ± SEM) [µM] | Vmax ([3]; human pancreatic lipase, ± SEM) | potency against HPL from Kic, times higher than 38 (myricetin) ([3]; versus 38) | Inhibition Model [4] | Ki [4, 6] [µM] | Vmax [4] | binding affinity to PPL, times higher than the other compounds (from Kic) ([4]; versus 38, 27 and 41) | inhibition at 100 µM ([2]; at 100 μM, read-out: PL Inhibition (%) ± SEM, Human) [%] | SMILES | IC50 [2] [µM] | Inhibition Model ([3]; human pancreatic lipase) | Ki ([4]; uncompetitive constant, read-out: Kiu) [µM] | type of PL inhibition [5]
1 | 7.3 ± 0.6 | 1.3 ± 0.3 | 260 ± 10 | approximately 60 | Competitive | 1.78 ± 0.04 | 507 ± 4 | approximately 10 |  | CCCCCCCCCCc1c(-c2ccc(O)c(O)c2)oc2cc(O)cc(O)c2c1=O [Flavonoid 30] | 3.2 ± 0.1 | mixed-type |  | 
2 | 32 ± 4 |  |  |  | Competitive | 21 ± 3 | 680 ± 7 |  | < 30 | O=C(O[C@@H]1Cc2c(O)cc(O)cc2O[C@@H]1c1cc(O)c(O)c(O)c1)c1cc(O)c(O)c(O)c1 [Flavonoid 41, (–)-Epigallocatechin gallate] |  |  |  | 
3 |  |  |  |  |  |  |  |  |  | CCCCCCCCCCC[C@@H](C[C@@H]1OC(=O)[C@H]1CCCCCC)OC(=O)[C@H](CC(C)C)NC=O [Orlistat] |  |  |  | irreversible

Row | SMILES | IC50 [1] [µM] | Ki ([3]; human pancreatic lipase, first Kic column of Table 4, ± SEM) [µM] | Vmax ([3]; human pancreatic lipase, ± SEM) | potency against HPL from Kic, times higher than 38 (myricetin) ([3]; versus 38) | Inhibition Model [4] | Ki [4, 6] [µM] | Vmax [4] | binding affinity to PPL, times higher than the other compounds (from Kic) ([4]; versus 38, 27 and 41) | inhibition at 100 µM ([2]; at 100 μM, read-out: PL Inhibition (%) ± SEM, Human) [%] | IC50 [2] [µM] | Inhibition Model ([3]; human pancreatic lipase) | Ki ([4]; uncompetitive constant, read-out: Kiu) [µM] | type of PL inhibition [5]
4 | O=c1c(O)c(-c2cc(O)c(O)c(O)c2)oc2cc(O)cc(O)c12 [Flavonoid 38, Myricetin] | 16 ± 1 |  |  |  |  | 12 ± 0.8 |  |  |  | 25 ± 2 | Noncompetitive | 58 ± 3 | 
